From patent US8877748B2, “Heterocyclic fused anthraquinone derivatives, manufacturing method and pharmaceutical composition using thereof” (National Defense Medical Center, priority 2012, dated 2014)

Legend:
OVCAR-3 = experiment: NCI one-dose screening, ovarian cancer OVCAR-3; format: cell-based, human; settings: 10 μM
HOP-62 = experiment: NCI one-dose screening, non-small cell lung cancer HOP-62; format: cell-based, human; settings: 10 μM
LOX IMVI = experiment: NCI one-dose screening, melanoma LOX IMVI; format: cell-based, human; settings: 10 μM
TK-10 = experiment: NCI one-dose screening, renal cancer TK-10; format: cell-based, human; settings: 10 μM
NCI-H522 = experiment: NCI one-dose screening, non-small cell lung cancer NCI-H522; format: cell-based, human; settings: 10 μM
U251 = experiment: NCI one-dose screening, CNS cancer U251; format: cell-based, human; settings: 10 μM
UACC-62 = experiment: NCI one-dose screening, melanoma UACC-62; format: cell-based, human; settings: 10 μM
KM12 = experiment: NCI one-dose screening, colon cancer KM12; format: cell-based, human; settings: 10 μM
NCI-H460 = experiment: NCI one-dose screening, non-small cell lung cancer NCI-H460; format: cell-based, human; settings: 10 μM
PC-3 = experiment: NCI one-dose screening, prostate cancer PC-3; format: cell-based, human; settings: 10 μM
RXF, 393 = experiment: NCI one-dose screening, renal cancer RXF, 393; format: cell-based, human; settings: 10 μM
NCl/ADR-RES = experiment: NCI one-dose screening, breast cancer NCl/ADR-RES; format: cell-based, human; settings: 10 μM; listed under Ovarian cancer
HCC-2998 = experiment: NCI one-dose screening, colon cancer HCC-2998; format: cell-based, human; settings: 10 μM
BT-549 = experiment: NCI one-dose screening, breast cancer BT-549; format: cell-based, human; settings: 10 μM
SNB-19 = experiment: NCI one-dose screening, CNS cancer SNB-19; format: cell-based, human; settings: 10 μM
IGROV1 = experiment: NCI one-dose screening, ovarian cancer IGROV1; format: cell-based, human; settings: 10 μM
T-47D = experiment: NCI one-dose screening, breast cancer T-47D; format: cell-based, human; settings: 10 μM
ACHN = experiment: NCI one-dose screening, renal cancer ACHN; format: cell-based, human; settings: 10 μM
OVCAR-5 = experiment: NCI one-dose screening, ovarian cancer OVCAR-5; format: cell-based, human; settings: 10 μM
SK-OV-3 = experiment: NCI one-dose screening, ovarian cancer SK-OV-3; format: cell-based, human; settings: 10 μM
NCI-H226 = experiment: NCI one-dose screening, non-small cell lung cancer NCI-H226; format: cell-based, human; settings: 10 μM
CAKI-1 = experiment: NCI one-dose screening, renal cancer CAKI-1; format: cell-based, human; settings: 10 μM
MALME-3M = experiment: NCI one-dose screening, melanoma MALME-3M; format: cell-based, human; settings: 10 μM
PRMI-8226 cell line = experiment: NCI one-dose screening, leukemia PRMI-8226; format: cell-based, human; settings: 10 μM
SK-MEL-5 = experiment: NCI one-dose screening, melanoma SK-MEL-5; format: cell-based, human; settings: 10 μM
MDA-MB-231/ATCC = experiment: NCI one-dose screening, breast cancer MDA-MB-231/ATCC; format: cell-based, human; settings: 10 μM
MDA, -MB-435 = experiment: NCI one-dose screening, breast cancer MDA, -MB-435; format: cell-based, human; settings: 10 μM; listed under Melanoma
OVCAR-8 = experiment: NCI one-dose screening, ovarian cancer OVCAR-8; format: cell-based, human; settings: 10 μM
DU145 = experiment: NCI one-dose screening, prostate cancer DU145; format: cell-based, human; settings: 10 μM
SN12C = experiment: NCI one-dose screening, renal cancer SN12C; format: cell-based, human; settings: 10 μM
UO-31 = experiment: NCI one-dose screening, renal cancer UO-31; format: cell-based, human; settings: 10 μM
SF-295 = experiment: NCI one-dose screening, CNS cancer SF-295; format: cell-based, human; settings: 10 μM
SF-539 = experiment: NCI one-dose screening, CNS cancer SF-539; format: cell-based, human; settings: 10 μM
HCT-116 = experiment: NCI one-dose screening, colon cancer HCT-116; format: cell-based, human; settings: 10 μM
K562cell line = experiment: NCI one-dose screening, leukemia K562; format: cell-based, human; settings: 10 μM
[1] = NCI one-dose screening, renal cancer A489; format: cell-based, human; settings: 10 μM
EKVX = experiment: NCI one-dose screening, non-small cell lung cancer EKVX; format: cell-based, human; settings: 10 μM
HCT-15 = experiment: NCI one-dose screening, colon cancer HCT-15; format: cell-based, human; settings: 10 μM
SNB-75 = experiment: NCI one-dose screening, CNS cancer SNB-75; format: cell-based, human; settings: 10 μM
human tumor cell lines = experiment: NCI one-dose screening, Mean / Delta / Range of growth percent over all tested cell lines; format: cell-based; settings: 10 μM
HL-60, TB = experiment: NCI one-dose screening, leukemia HL-60, TB; format: cell-based, human; settings: 10 μM
COLO 205 = experiment: NCI one-dose screening, colon cancer COLO 205; format: cell-based, human; settings: 10 μM
M14 = experiment: NCI one-dose screening, melanoma M14; format: cell-based, human; settings: 10 μM
MOLT-4 = experiment: NCI one-dose screening, leukemia MOLT-4; format: cell-based, human; settings: 10 μM
NCI-H23 = experiment: NCI one-dose screening, non-small cell lung cancer NCI-H23; format: cell-based, human; settings: 10 μM
HT29 = experiment: NCI one-dose screening, colon cancer HT29; format: cell-based, human; settings: 10 μM
UACC-257 = experiment: NCI one-dose screening, melanoma UACC-257; format: cell-based, human; settings: 10 μM
MDA-MB-468 = experiment: NCI one-dose screening, breast cancer MDA-MB-468; format: cell-based, human; settings: 10 μM
SF-268 = experiment: NCI one-dose screening, CNS cancer SF-268; format: cell-based, human; settings: 10 μM
SR = experiment: NCI one-dose screening, leukemia SR; format: cell-based, human; settings: 10 μM
SK-MEL-2 = experiment: NCI one-dose screening, melanoma SK-MEL-2; format: cell-based, human; settings: 10 μM
MCF7 = experiment: NCI one-dose screening, breast cancer MCF7; format: cell-based, human; settings: 10 μM
786-O = experiment: NCI one-dose screening, renal cancer 786-O; format: cell-based, human; settings: 10 μM
A549/ATCC = experiment: NCI one-dose screening, non-small cell lung cancer A549/ATCC; format: cell-based, human; settings: 10 μM
HOP-92 = experiment: NCI one-dose screening, non-small cell lung cancer HOP-92; format: cell-based, human; settings: 10 μM
SK-MEL-28 = experiment: NCI one-dose screening, melanoma SK-MEL-28; format: cell-based, human; settings: 10 μM

Structure (SMILES): O=C1c2ccccc2C(=O)c2c1cc(Sc1ccccn1)c1nsnc21 [C58, 4-(pyridin-2-yl-thio)anthra[2,1-c][1,2,5] thia-diazole-6,11-dione]
- Growth Percent OVCAR-3 (OVCAR-3): −90.05%
- Growth Percent HOP-62 (HOP-62): 81.44%
- Growth Percent LOX IMVI (LOX IMVI): −54.85%
- Growth Percent TK-10 (TK-10): 80.94%
- Growth Percent NCI-H522 (NCI-H522): 48.83%
- Growth Percent U251 (U251): 43.78%
- Growth Percent UACC-62 (UACC-62): 69.46%
- Growth Percent KM12 (KM12): 87.50%
- Growth Percent NCI-H460 (NCI-H460): 89.65%
- Growth Percent PC-3 (PC-3): 14.77%
- Growth Percent RXF 393 (RXF, 393): 60.19%
- Growth Percent NCI/ADR-RES (NCl/ADR-RES): 37.25%
- Growth Percent HCC-2998 (HCC-2998): 106.02%
- Growth Percent BT-549 (BT-549): 76.58%
- Growth Percent SNB-19 (SNB-19): 103.09%
- Growth Percent IGROV1 (IGROV1): −30.93%
- Growth Percent T-47D (T-47D): −52.85%
- Growth Percent ACHN (ACHN): −71.76%
- Growth Percent OVCAR-5 (OVCAR-5): 118.16%
- Growth Percent SK-OV-3 (SK-OV-3): 115.11%
- Growth Percent NCI-H226 (NCI-H226): 82.43%
- Growth Percent CAKI-1 (CAKI-1): 59.22%
- Growth Percent MALME-3M (MALME-3M): 18.08%
- Growth Percent RPMI-8226 (PRMI-8226 cell line): −4.48%
- Growth Percent SK-MEL-5 (SK-MEL-5): 61.76%
- Growth Percent MDA-MB-231/ATCC (MDA-MB-231/ATCC): 4.55%
- Growth Percent MDA-MB-435 (MDA, -MB-435): −80.50%
- Growth Percent OVCAR-8 (OVCAR-8): 18.67%
- Growth Percent DU145 (DU145): 58.15%
- Growth Percent SN12C (SN12C): 77.39%
- Growth Percent UO-31 (UO-31): −79.21%
- Growth Percent SF-295 (SF-295): 78.47%
- Growth Percent SF-539 (SF-539): 93.92%
- Growth Percent HCT-116 (HCT-116): −84.89%
- Growth Percent K562 (K562cell line): −23.03%
- Growth Percent A498 [1]: 68.74%
- Growth Percent EKVX (EKVX): 97.65%
- Growth Percent HCT-15 (HCT-15): 82.58%
- Growth Percent SNB-75 (SNB-75): 70.82%
- Growth Percent Delta (human tumor cell lines; delta over all cell lines): 125.38%
- Growth Percent Mean (human tumor cell lines; mean over all cell lines): 28.56%
- Growth Percent Range (human tumor cell lines; range over all cell lines): 214.98%
- Growth Percent HL-60(TB) (HL-60, TB): −40.05%
- Growth Percent COLO 205 (COLO 205): 111.91%
- Growth Percent M14 (M14): 73.52%
- Growth Percent MOLT-4 (MOLT-4): −41.19%
- Growth Percent NCI-H23 (NCI-H23): 4.86%
- Growth Percent HT29 (HT29): 108.08%
- Growth Percent UACC-257 (UACC-257): −10.49%
- Growth Percent MDA-MB-468 (MDA-MB-468): −80.08%
- Growth Percent SF-268 (SF-268): 37.83%
- Growth Percent SR (SR): 0.05%
- Growth Percent SK-MEL-2 (SK-MEL-2): 14.45%
- Growth Percent MCF7 (MCF7): 68.59%
- Growth Percent 786-0 (786-O): −96.82%
- Growth Percent A549/ATCC (A549/ATCC): 96.53%
- Growth Percent HOP-92 (HOP-92): −44.56%
- Growth Percent SK-MEL-28 (SK-MEL-28): 108.55%
